Data reported in patent US5143911A, “Antibiotic C-3 di-hydroxyphenyl substituted cephalosporin compounds, compositions and method of use thereof” (Bristol-Myers Squibb Company, priority 1990, dated 1992).
≈ marks a conversion by molar mass, not a printed value.

Tests used:
K. pneumoniae PCI 602 = conditions: Klebsiella pneumoniae, PCI602, 18 h, pH 7.2
[1] = tested on: M. morganii(1), Ent. cloacae(2), and Ser. marcescens(2); assay: MIC, two-fold serial agar dilution, Mueller-Hinton agar (geometric mean, group Gn-II); assay type: cell-based; conditions: 5 strains
Procedure: (§1) For a primary evaluation of some representative compounds of this invention, minimum inhibitory concentrations (MIC's) were determined against 32 strains of test organisms by two-fold serial agar dilution method in Mueller-Hinton agar.
GnII: M. morganii(1), Ent. cloacae(2), and Ser. marcescens(2)

S. aureus Smith [2] = conditions: Staphylococcus aureus, in Mus musculus, im, read-out: PD50
C. freundii GN 7391 = conditions: Citrobacter freundii, GN7391, 18 h, pH 7.2
E. cloacae IPM-12 = conditions: Enterobacter cloacae, IPM12, 18 h, pH 7.2
P. cepacia No. 651 = conditions: Burkholderia cepacia, NO.651, 18 h, pH 7.2
S. aureus Smith [3] = conditions: Staphylococcus aureus, 18 h, pH 7.2
PCresistant S. aureus = assay: MIC, two-fold serial agar dilution, Mueller-Hinton agar (geometric mean, group Gp-Ib); assay type: cell-based; conditions: Staphylococcus aureus, penicillin-resistant S. aureus, 5 strains
Procedure: as §1
GpIb: PCresistant S. aureus

S. epidermidis 11-1230 = conditions: Staphylococcus epidermidis, 111230, 18 h, pH 7.2
P. mirabilis IFO-2849 = conditions: Proteus mirabilis, IFO2849, 18 h, pH 7.2
S. aureus IPM-24 (MRSA) = conditions: Staphylococcus aureus, 18 h, pH 7.2
[4] = tested on: Penicillin (PC)sensitive S. (5 strains); assay: MIC, two-fold serial agar dilution, Mueller-Hinton agar (geometric mean, group Gp-Ia); assay type: cell-based, S. aureus; conditions: Staphylococcus aureus
Procedure: as §1
Gp-Ia: Penicillin (PC)sensitive S.

C. terrigena IFO 12685 = conditions: 18 h, pH 7.2
X. maltophilia No. 661 = conditions: Stenotrophomonas maltophilia, NO.661, 18 h, pH 7.2
B. fragilis A 22693 = assay: In vitro activity against anaerobes (MIC), two-fold serial agar dilution, GAM agar; assay type: cell-based; conditions: Bacteroides fragilis, A22693, Gn, Beta-Lactamase(-)
E. coli Juhl = conditions: Escherichia coli, in Mus musculus, im, read-out: PD50
S. aureus 209P = conditions: Staphylococcus aureus, 18 h, pH 7.2
B. fragilis A 22533 = assay: In vitro activity against anaerobes (MIC), two-fold serial agar dilution, GAM agar; assay type: cell-based; conditions: Bacteroides fragilis, A22533, Gn, Beta-Lactamase(+)
[5] = tested on: CETresistant E. coli(3), and Kl. pneumoniae(2); assay: MIC, two-fold serial agar dilution, Mueller-Hinton agar (geometric mean, group Gn-Ib); assay type: cell-based; conditions: Escherichia coli, read-out: Geometric Mean of MIC, Gn-Ib
Procedure: as §1
GnIb: CETresistant E. coli(3), and Kl. pneumoniae(2)

P. acnes A 21933 = assay: In vitro activity against anaerobes (MIC); assay type: cell-based; conditions: Cutibacterium acnes, A21933, Gp
S. marcescens IPM-15 = conditions: Serratia marcescens, IPM15, 18 h, pH 7.2
E. coli 255 = conditions: Escherichia coli, 255, 18 h, pH 7.2
C. difficile A 21675 = assay: In vitro activity against anaerobes (MIC); assay type: cell-based; conditions: Clostridioides difficile, A21675, Gp, Clindamycin-resistant
S. epidermidis 11-1168 = assay type: cell-based; conditions: Staphylococcus epidermidis, 111168, pH 7.2, 32° C. 18 hr, 10^6 cells/ml
E. faecalis A9808 = conditions: Enterococcus faecalis, A9808, 18 h, pH 7.2
[6] = tested on: Cephalothin (CET)sensitive E. coli(2), Kl. pneumoniae(1) and Pr. mirabilis(2); assay: MIC, two-fold serial agar dilution, Mueller-Hinton agar (geometric mean, group Gn-Ia); assay type: cell-based; conditions: 5 strains
Procedure: as §1
GnIa: Cephalothin (CET)sensitive E. coli(2)*, Kl. pneumoniae(1) and Pr.

B. fragilis A 22695 = assay: In vitro activity against anaerobes (MIC), two-fold serial agar dilution, GAM agar; assay type: cell-based; conditions: Bacteroides fragilis, A22695, Gn, Beta-Lactamase(+)
P. vulgaris IPM-13 = assay type: cell-based; conditions: Proteus vulgaris, IPM13, pH 7.2, 32° C. 18 hr, 10^6 cells/ml
P. aeruginosa A20599 = assay type: cell-based; conditions: Pseudomonas aeruginosa, pH 7.2, 32° C. 18 hr, 10^6 cells/ml
E. faecium A24817 = assay type: cell-based; conditions: Enterococcus faecium, pH 7.2, 32° C. 18 hr, 10^6 cells/ml
B. fragilis A 21916 = assay: In vitro activity against anaerobes (MIC), two-fold serial agar dilution, GAM agar; assay type: cell-based; conditions: Bacteroides fragilis, A21916, Gn, Beta-Lactamase(-)

`CO/N=C(\C(=O)NC1C(=O)N2C(C(=O)O)=C(/C=C/COC(=O)c3ccc(O)c(O)c3)CS[C@H]12)c1csc(N)n1` (stereo partly shown) [Ia, 7-[(Z)-2-(2-Aminothiazol-4-yl)-2-methoxyiminoacetamido]-3-[(E)-3-(3,4-dihydroxybenzoyloxy)-1-propen-1-yl]-3-cephem-4-carboxylic acid] gave an MIC (K. pneumoniae PCI 602) of under 0.0063 µg/mL, an MIC [1] of 0.46 µg/mL (≈ 0.799 µM) and an ED50 (S. aureus Smith [2]) of 0.4 mg/kg. The MIC (C. freundii GN 7391) was 12.5 µg/mL (≈ 21.7 µM), the MIC (E. cloacae IPM-12) was over 100 µg/mL and the MIC (P. cepacia No. 651) was 12.5 µg/mL (≈ 21.7 µM). It also gave an MIC (S. aureus Smith [3]) of 1.6 µg/mL (≈ 2.78 µM), an MIC (PCresistant S. aureus) of 1.6 µg/mL (≈ 2.78 µM) and an MIC (S. epidermidis 11-1230) of 3.1 µg/mL (≈ 5.39 µM). The MIC (P. mirabilis IFO-2849) was 0.05 µg/mL (≈ 0.0869 µM), the MIC (S. aureus IPM-24 (MRSA)) was over 100 µg/mL and the MIC [4] was 1.2 µg/mL (≈ 2.08 µM). The MIC (C. terrigena IFO 12685) was 0.8 µg/mL (≈ 1.39 µM), the MIC (X. maltophilia No. 661) was 12.5 µg/mL (≈ 21.7 µM) and the MIC (B. fragilis A 22693) was 0.8 µg/mL (≈ 1.39 µM). For the same compound, the ED50 (E. coli Juhl) was 0.05 mg/kg, the MIC (S. aureus 209P) was 3.1 µg/mL (≈ 5.39 µM) and the MIC (B. fragilis A 22533) was over 50 µg/mL. It also gave an MIC [5] of 0.029 µg/mL (≈ 0.0504 µM), an MIC (P. acnes A 21933) of 0.4 µg/mL (≈ 0.695 µM) and an MIC (S. marcescens IPM-15) of over 100 µg/mL. For the same compound, the MIC (E. coli 255) was 0.2 µg/mL (≈ 0.347 µM), the MIC (C. difficile A 21675) was 12.5 µg/mL (≈ 21.7 µM) and the MIC (S. epidermidis 11-1168) was 3.1 µg/mL (≈ 5.39 µM). For the same compound, the MIC (E. faecalis A9808) was 100 µg/mL (≈ 174 µM), the MIC [6] was 0.017 µg/mL (≈ 0.0295 µM) and the MIC (B. fragilis A 22695) was 12.5 µg/mL (≈ 21.7 µM). For the same compound, the MIC (P. vulgaris IPM-13) was over 100 µg/mL, the MIC (P. aeruginosa A20599) was 3.1 µg/mL (≈ 5.39 µM) and the MIC (E. faecium A24817) was over 100 µg/mL. It also gave an MIC (B. fragilis A 21916) of 1.6 µg/mL (≈ 2.78 µM).
